Reference: US20240207374A1, “LIPID NANOPARTICLES CONTAINING POLYNUCLEOTIDES ENCODING GLUCOSE-6-PHOSPHATASE AND USES THEREOF” (ModernaTX, Inc., priority 2021, published 2024)

Experiment: Residual parent lipid levels in the liver of mice (hEPO mRNA LNP)
Type: in vivo
Conditions: CD-1 mice

Row | Compound | Parent Lipid Remaining at 24 h [nmol/g liver tissue]
1 | CCCCCCCCC(CCCCCCCC)OC(=O)CCCCCCCN(CCO)CCCCCCCC(=O)OCCC(CCCC)CCCCCC (stereo not shown) [Compound 7] | 0.3 ± 0.2
2 | CCCCCCCCC(CCCCCCCC)COC(=O)CCCCCN(CCCCCCCC(=O)OC(CC)CCCCCCCC)CCCNc1c(NC)c(=O)c1=O (stereo not shown) [Compound 14] | 56 ± 6
3 | CCCCCCCCC(CCCCCC)COC(=O)CCCCCN(CCCCCCCC(=O)OC(CC)CCCCCCCC)CCCNc1c(NC)c(=O)c1=O (stereo not shown) [Compound 15] | 51 ± 4
4 | CCCCCCCCC(CCCCCCCC)OC(=O)CCCCCCCN(CCCCCCCC(=O)OCC(CCCCC)CCCCCCC)CCCNc1c(NC)c(=O)c1=O (stereo not shown) [Compound 16] | 77 ± 3
5 | CCCCCCCCC(CCCCCCCC)OC(=O)CCCCCCCN(CCCCCCCC(=O)OCCC(CCCCCC)C(C)C)CCCNc1c(NC)c(=O)c1=O (stereo not shown) [Compound 17] | 35 ± 5
6 | CCCCCCCCC(CCCCCCCC)OC(=O)CCCCCCCN(CCCCCCCC(=O)OCC(CCCCCCC)C(C)C)CCCNc1c(NC)c(=O)c1=O (stereo not shown) [Compound 19] | 73 ± 6
7 | CCCCCCCCC(CCCCCCCC)OC(=O)CCCCCCCN(CCCCCCCC(=O)OCCC(CCCC)CCCCCC)CCCNc1c(NC)c(=O)c1=O (stereo not shown) [Compound 20] | 65 ± 5
8 | CCCCCCCCC(CCCCCCCC)OC(=O)CCCCCCCN(CCO)CCCCCCCC(=O)OCCC(CCCC)CCCC [Compound 22, 3-Butylheptyl 8-((8-(heptadecan-9-yloxy)-8-oxooctyl)(2-hydroxyethyl)amino)octanoate] | <0.1
9 | CCCCCCC(CCCCCC)CCOC(=O)CCCCCCCN(CCO)CCCCCCCC(=O)OCCC(CCCCCC)CCCCCC [Compound 23] | 24 ± 3
10 | CCCCCCCCC(CCCCCCCC)OC(=O)CCCCCCCN(CCO)CCCCCCCC(=O)OCCC(CCCCC)CCCCC [Compound 24] | 3 ± 1
11 | CCCCCC(CCCCC)CCOC(=O)CCCCCCCN(CCO)CCCCCCCC(=O)OCCC(CCCCC)CCCCC [Compound 25] | 0.1 ± 0.04
12 | CCCCCCCCC(CCCCCCCC)OC(=O)CCCCCCCN(CCCCCCCC(=O)OCCC(CCCCCC)CCCCCC)CCCNc1c(NC)c(=O)c1=O [Compound 26] | 141 ± 15
13 | CCCCCCCCC(CCCCCCCC)OC(=O)CCCCCCCN(CCCCCCCC(=O)OCCC(CCCC)CCCC)CCCNc1c(NC)c(=O)c1=O [Compound 27, 3-Butylheptyl 8-((8-(heptadecan-9-yloxy)-8-oxooctyl)(3-((2-(methylamino)-3,4-dioxocyclobut-1-en-1-yl)amino)propyl)amino)octanoate] | 27 ± 4
14 | CCCCCCC(CCCCCC)CCOC(=O)CCCCCCCN(CCCCCCCC(=O)OCCC(CCCCCC)CCCCCC)CCCNc1c(NC)c(=O)c1=O [Compound 28] | 58 ± 7
15 | CCCCCCCCC(CCCCCCCC)OC(=O)CCCCCCCN(CCCCCCCC(=O)OCCC(CCCCC)CCCCC)CCCNc1c(NC)c(=O)c1=O [Compound 29] | 66 ± 16
16 | CCCCCC(CCCCC)CCOC(=O)CCCCCCCN(CCCCCCCC(=O)OCCC(CCCCC)CCCCC)CCCNc1c(NC)c(=O)c1=O [Compound 30, Bis(3-pentyloctyl) 8,8′-((3-((2-(methylamino)-3,4-dioxocyclobut-1-en-1-yl)amino)propyl)azanediyl)dioctanoate] | 25 ± 4
17 | CCCCCCCCC(CCCCCCCC)OC(=O)CCCCCCCN(CCO)CCCCCCCC(=O)OCCCC(CCCCC)CCCCC [Compound 31] | 2 ± 0.6
18 | CCCCCCCCC(CCCCCCCC)OC(=O)CCCCCCCN(CCCCCCCC(=O)OCCCC(CCCCC)CCCCC)CCCNc1c(NC)c(=O)c1=O [Compound 32] | 69 ± 17
19 | CCCCCC(CCCCC)CCCOC(=O)CCCCCCCN(CCO)CCCCCCCC(=O)OCCCC(CCCCC)CCCCC [Compound 33] | 0.5 ± 0.3

Row | Compound | Parent Lipid Remaining at 24 h [nmol/g liver tissue]
20 | CCCCCC(CCCCC)CCCOC(=O)CCCCCCCN(CCCCCCCC(=O)OCCCC(CCCCC)CCCCC)CCCNc1c(NC)c(=O)c1=O [Compound 34] | 12 ± 2
21 | CCCCCCCCC(CCCCCCCC)OC(=O)CCCCCCCN(CCO)CCCCCCCC(=O)OCCC1CCC(CC)CC1 (stereo not shown) [Compound 35] | <0.1
22 | CCCCCCCCC(CCCCCCCC)OC(=O)CCCCCCCN(CCO)CCCCCCCC(=O)OCCC1CCC(CC)C1 (stereo not shown) [Compound 37] | <0.1
23 | CCCCCCCCC(CCCCCCCC)OC(=O)CCCCCCCN(CCCCCCCC(=O)OCCC1CCC(CCC)CC1)CCCNc1c(NC)c(=O)c1=O (stereo not shown) [Compound 39] | 4 ± 1
24 | CCCCCCCCC(CCCCCCCC)OC(=O)CCCCCCCN(CCCCCCCC(=O)OCCC1CCC(CC)C1)CCCNc1c(NC)c(=O)c1=O (stereo not shown) [Compound 40] | 3 ± 0.3
25 | CCCCCC(CCCCC)CCOC(=O)CCCCCCCN(CCCCCCCC(=O)OCCC(CCC)CCC)CCCNc1c(NC)c(=O)c1=O [Compound 51] | 4 ± 0.6
26 | CCCCC(CCCC)CCOC(=O)CCCCCCCN(CCCCCCCC(=O)OCCC(CCC)CCC)CCCNc1c(NC)c(=O)c1=O [Compound 52] | <1
27 | CCCC(CCC)CCOC(=O)CCCCCCCN(CCCCCCCC(=O)OCCC(CCC)CCC)CCCNc1c(NC)c(=O)c1=O [Compound 53] | <1
28 | CCCCCC(CCCCC)CCOC(=O)CCCCCCCN(CCCCCCCC(=O)OCCC(CCCC)CCCC)CCCNc1c(NC)c(=O)c1=O [Compound 54, 3-Butylheptyl 8-((3-((2-(methylamino)-3,4-dioxocyclobut-1-en-1-yl)amino)propyl)(8-oxo-8-((3-pentyloctyl)oxy)octyl)amino)octanoate] | 12 ± 1
29 | CCCCCC(CCCCC)CCOC(=O)CCCCCCCN(CCCCCCCC(=O)OC(CCCCC)CCCCC)CCCNc1c(NC)c(=O)c1=O [Compound 57] | 12 ± 1
30 | CCCCCC(CCCCC)CCOC(=O)CCCCCCCN(CCCCCCCC(=O)OC(CCCC)CCCC)CCCNc1c(NC)c(=O)c1=O [Compound 58] | 15 ± 2
31 | CCCCCCC(CCCCCC)OC(=O)CCCCCCCN(CCCCCCCC(=O)OCCC(CCCC)CCCC)CCCNc1c(NC)c(=O)c1=O [Compound 60] | 8.5 ± 0.6
32 | CCCCCC(CCCCC)OC(=O)CCCCCCCN(CCCCCCCC(=O)OCCC(CCCC)CCCC)CCCNc1c(NC)c(=O)c1=O [Compound 61] | 5.1 ± 0.8
33 | CCCCC(CCCC)CCOC(=O)CCCCCCCN(CCCCCCCC(=O)OC(CCCC)CCCC)CCCNc1c(NC)c(=O)c1=O [Compound 62] | 1.8 ± 0.6
34 | CCCCCCCC(CCCCCCC)OC(=O)CCCCCCCN(CCCCCCCC(=O)OCCC(CCC)CCC)CCCNc1c(NC)c(=O)c1=O [Compound 63] | 8.9 ± 2.8
35 | CCCCCCC(CCCCCC)OC(=O)CCCCCCCN(CCCCCCCC(=O)OCCC(CCC)CCC)CCCNc1c(NC)c(=O)c1=O [Compound 64] | 4.9 ± 0.9
36 | CCCCCC(CCCCC)OC(=O)CCCCCCCN(CCCCCCCC(=O)OCCC(CCC)CCC)CCCNc1c(NC)c(=O)c1=O [Compound 65] | 0.9 ± 0.3
37 | CCCCC(CCCC)OC(=O)CCCCCCCN(CCCCCCCC(=O)OCCC(CCC)CCC)CCCNc1c(NC)c(=O)c1=O [Compound 66] | 0.1 ± 0.03
